“Also recorded” adds a separate entry of the source. Non-standard residues stand in square brackets, D forms with d. (PEG)2 40 kDa = branched PEG of 40 kDa linked via the Cys side-chain thiol (code C2 = Cys(PEG)2 40 kDa)
Columns and labels:
[1] = test system: diet-induced obese mice; assay: Feeding study in diet-induced obese mice (food intake, body weight); type: in vivo; settings: for % Food intake (FI) reductions Day 1: Day 1, based on vehicle responses; for % Food intake (FI) reductions Day 2: Day 2, based on vehicle responses; for % Food intake (FI) reductions Day 3: Day 3, based on vehicle responses; for anorectic effect: acute administration; for body weight / duration of reductions in food intake: single acute subcutaneous administration
Text: NMUR1 knockout (Nmur1−/−) mice were generated using standard homologous recombination techniques. Nmur1 mice were subsequently transferred to Taconic Farms where they were either maintained on a 75% C57BL/6×25% 129S6/SvEv mixed genetic background or backcrossed six generations to C57BL/6. NMUR2 knockout (Nmur2−/−) mice were licensed from Deltagen Inc., San Mateo, Calif. and subsequently transferred to Taconic Farms where they were either maintained on a 75% C57BL/6×25% 129/OlaHsd mixed genetic background or backcrossed for seven generations to C57BL/6. NMUR1 and NMUR2 double knockout (Nmur1&2−/−) mice were generated by crossing N6 Nmur1−/− mice to N7 Nmur2−/− mice. Mice were individually housed in Tecniplast cages in a conventional SPF facility. Mice were initially maintained on a regular chow diet and then early in their life were switched to a high fat diet (D12492: 60% kcal from fat; Research Diets, Inc., New Brunswick, N.J.) with ad libitum access to water in a 12-hour light/12-hour dark cycle.
Ad libitum fed male diet-induced obese mice were weighed and dosed either i.p. or s.c. about 30 minutes prior to the onset of the dark phase of the light cycle and provided with a preweighed aliquot of high fat diet D12492 which was then weighed 2 hours and 18 hours (day 1), 42 hours (day 2), 66 hours (day 3), and 90 hours (day 4) after the onset of the initial dark phase. Mice were weighed at the 18, 42, 66 and 90 hour time points.

[2] = Pharmacokinetic analysis using the FLIPR bioassay; type: in vivo; settings: mice, 10 mg/kg subcutaneously, compared with hNMU-25
Protocol: Neuromedin U receptor agonist NMU12 exposure levels in dosed animals were measured using the bioassay and compared with hNMU-25 exposure levels. Animals were dosed subcutaneously with 10 mg/kg NMU12 or hNMU-25 and plasma was collected at various time points post-dose. The bioassay was a FLIPR-based assay, which was performed essentially as described above with the following modifications. Sample preparation prior to the assay was performed on ice to minimize degradation of plasma samples. The assay was run with 4% plasma as the final concentration. A three-point titration was done with the dosed plasma and tested on human NMUR1-expressing cell lines using FLIPR. The response after sample addition was taken as the maximum fluorescence units minus the fluorescence immediately prior to stimulation for each well. In addition to a three-point titration of dosed plasma samples, a 16-point titration of the peptide (hNMU-25 or NMU12) was run in 4% plasma (naive plasma) to serve as the standard. The concentration of the peptide in plasma was calculated based on extrapolations from the appropriate standard using the GraphPad Prism software.

[3] = biological target: T1, hNMUR1 (Homo sapiens, UniProt Q9HB89); assay: FLIPR calcium mobilization assay, human NMUR1; type: cell-based; set-up: expressed in transfected cells; host or cells: FLP-In CHO or HEK-293 FLP-In cells (pcDNA5); HEK-293/aeq17 lines (pIRES-puro) were also made; settings: human NMUR1
T1 sequence (Q9HB89 1-426): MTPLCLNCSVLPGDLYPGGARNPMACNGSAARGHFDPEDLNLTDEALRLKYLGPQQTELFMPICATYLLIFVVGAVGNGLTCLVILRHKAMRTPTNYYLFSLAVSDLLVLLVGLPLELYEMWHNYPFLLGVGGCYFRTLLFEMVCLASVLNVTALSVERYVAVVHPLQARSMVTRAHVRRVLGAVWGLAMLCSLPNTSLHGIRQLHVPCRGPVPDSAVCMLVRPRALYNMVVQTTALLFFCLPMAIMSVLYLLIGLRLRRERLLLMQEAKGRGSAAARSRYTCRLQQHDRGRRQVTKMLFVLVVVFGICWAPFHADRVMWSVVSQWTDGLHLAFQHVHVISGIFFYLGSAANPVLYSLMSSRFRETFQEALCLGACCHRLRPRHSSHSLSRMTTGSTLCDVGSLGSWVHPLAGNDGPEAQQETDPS
Text: (§1) Human, mouse or rat cDNAs encoding NMUR1 or NMUR2 (as described in Howard et al. Nature 406: 70-74 (2000) were subcloned in pcDNA5 (Invitrogen) and transfected into FLP-In CHO cells and HEK-293 FLP-In cells purchased from Invitrogen (Carlsbad, Calif.) using lipofectamine (Invitrogen). The Flp-In system allows integration and expression of a particular gene of interest at a specific genomic location utilizing the Flp recombinase from yeast. The transfected cells were selected by growth in medium containing 200 μg/mL hygromycin (Invitrogen). Populations were frozen at early passage numbers, and these stocks were used for further studies. Stable clones that expressed the mRNAs were identified functionally by FLIPR as well as by RT-PCR. […] Two different rodent NMUR1 cell lines were thus generated: one with the codon as predicted from the genomic databases and another cell line with an engineered methionine (ATG) as the start codon. Additionally, stable cell lines expressing the human receptors were generated in HEK-293/aeq17 cells which stably express the aequorin gene under the CMV promoter. The human NMUR2 cDNA was cloned into pcDNA3.1 and human NMUR1 was subcloned into pIRES-puro (Clontech, Mountain View, Calif.), after transfection cells were selected in media containing G418 and either hygromycin (NMUR2) or puromycin (NMUR1).
(§2) The NMU receptors signal primarily through Gαq/11 proteins; therefore calcium mobilization assays can be utilized for functional activity.
(§3) Stable cell lines expressing human and or rodent NMUR1 or human NMUR2 receptors were plated at a density of 12,000 cells per well overnight on poly-lysine coated 384-well black-walled plates. The following day, the media was removed from the plates and the cells were subsequently loaded with Fluo-3 (Molecular Probes), a calcium sensitive dye, diluted in FLIPR buffer (1× Hank's buffered saline containing 20 mM HEPES, 0.1% BSA, 2.5 mM probenecid (Sigma) and 1.6 mM TR40). All reagents are from Invitrogen unless otherwise noted. Peptide stocks were resuspended in DMSO at a stock concentration of 2 mM and diluted in FLIPR buffer on the day of the experiment to a 4 μM working stock solution.
(§4) After a 90 minute incubation at room-temperature, cell plates were loaded onto a FLIPR (Molecular Devices) to monitor cellular fluorescence (excitation=488 nm; emission=540 nm) before and after compound/peptide addition. Eight to twelve point dose responses were tested on NMUR-expressing cell lines using FLIPR with 1 μM peptide as the highest dose. The response after peptide addition was taken as the maximum fluorescence units minus the fluorescence immediately prior to stimulation for each well. EC50 values were calculated using GraphPad Prism (San Diego, Calif.) software.
(§5) In vitro responses of Neuromedin U receptor agonists (NMU1 to NMU25) in the FLIPR assay for human (Table 3), mouse (Table 4) and rat (Table 5) NMUR1 and NMUR2. EC50s are reported in nM values. Percent activity refers to the maximum response at 1 μM compared to the hNMU-25 response at the same concentration. NT=not tested.

[4] = biological target: hNMUR2 (Homo sapiens, UniProt Q9GZQ4); assay: FLIPR calcium mobilization assay, human NMUR2; type: cell-based; set-up: expressed in transfected cells; host or cells: FLP-In CHO or HEK-293 FLP-In cells (pcDNA5); HEK-293/aeq17 lines (pcDNA3.1) were also made; settings: human NMUR2
Text: as §1, §2, §3, §4, §5

hNMUR2, sequence (Q9GZQ4 whole entry): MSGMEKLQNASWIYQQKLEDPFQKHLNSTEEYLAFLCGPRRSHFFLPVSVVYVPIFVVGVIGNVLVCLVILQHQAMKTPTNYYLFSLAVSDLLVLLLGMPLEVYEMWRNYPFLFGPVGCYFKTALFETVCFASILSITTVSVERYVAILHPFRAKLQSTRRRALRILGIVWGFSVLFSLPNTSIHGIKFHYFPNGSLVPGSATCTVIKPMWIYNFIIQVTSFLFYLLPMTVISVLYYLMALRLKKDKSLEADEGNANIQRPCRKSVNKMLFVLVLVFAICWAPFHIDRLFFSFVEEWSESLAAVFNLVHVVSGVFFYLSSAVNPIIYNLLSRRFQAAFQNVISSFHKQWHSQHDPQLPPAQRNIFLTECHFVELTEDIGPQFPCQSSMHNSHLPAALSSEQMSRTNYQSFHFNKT

Ac-C2-Ttds-FLFRPRN-CONH2 (Ac-CFLFRPRN-NH2; not fully specified (residue 1); printed as Ac-C2-Ttds-FLFRPRN-CONH2) [NMU16, C2 = Cys(PEG)240 kDa]
Body weight (BW) change (in grams) {relative to vehicle} Day 1 ([1]; 10 mg/kg): −0.3 grams | % Food intake (FI) reductions Day 1 ([1]; 10 mg/kg): 11% | Body weight (BW) change (in grams) {relative to vehicle} Day 1 ([1]; 30 mg/kg): −0.9 grams | % Food intake (FI) reductions Day 1 ([1]; 30 mg/kg): 25%

Ac-C2ASQSRGYFLFRPRN-CONH2 (Ac-C((PEG)2 40 kDa)ASQSRGYFLFRPRN-NH2) [NMU18, C2 = Cys(PEG)240 kDa]
extension of serum half-life by PEGylation [1]: two days | Body weight (BW) change (in grams) {relative to vehicle} Day 1 ([1]; 10 mg/kg): −2.6 grams | % Food intake (FI) reductions Day 1 ([1]; 10 mg/kg): 71% | Body weight (BW) change (in grams) {relative to vehicle} Day 2 ([1]; 10 mg/kg): −0.2 grams | % Food intake (FI) reductions Day 2 ([1]; 10 mg/kg): 40%

Ac-C2FRVDEEFQSPFASQSRGYFLFRPRN-CONH2 [NMU12] (Ac-C((PEG)2 40 kDa)FRVDEEFQSPFASQSRGYFLFRPRN-NH2)
Body weight (BW) change (in grams) {relative to vehicle} Day 1 ([1]; 10 mg/kg): −1.8 grams | % Food intake (FI) reductions Day 1 ([1]; 10 mg/kg): 51% | Body weight (BW) change (in grams) {relative to vehicle} Day 2 ([1]; 10 mg/kg): −1.3 grams | % Food intake (FI) reductions Day 2 ([1]; 10 mg/kg): 50% | Body weight (BW) change (in grams) {relative to vehicle} Day 3 ([1]; 10 mg/kg): −0.2 grams | % Food intake (FI) reductions Day 3 ([1]; 10 mg/kg): 15% | duration of reductions in food intake and body weight ([1]; NMUR1 knockout animals): two days post dose | duration of reductions in food intake and body weight ([1]; NMUR2 knockout animals): only overnight effects | anorectic effect ([1]; NMUR1/NMUR2 double knockout animals): no effect was observed | anorectic effect ([1]; wild-type animals): highly efficacious | cumulative food intake reduction relative to the vehicle treated group ([1]; chronic administration QD, Q2D or Q3D): 12-27% | food intake ([1]; peripheral administration, Nmur1 knockout mice): able to reduce food intake | crossing the blood-brain barrier ([1]; peripheral administration, inferred from knockout mice): capable of crossing the blood-brain barrier; also recorded: able to cross the blood-brain barrier | body weight [1]: significant reduction | duration of reductions in food intake [1]: three days | metabolic stability in vivo (plasma exposure) [2]: greater metabolic stability in vivo | half-life in human plasma: greater than three days

Ac-C2FRVDEEFQSPFASQSRGYFaWRPRN-CONH2 (Ac-C((PEG)2 40 kDa)FRVDEEFQSPFASQSRGYF[dA]WRPRN-NH2) [NMU14, C2 = Cys(PEG)240 kDa; a = D-Alanine]
Body weight (BW) change (in grams) {relative to vehicle} Day 1 ([1]; 50 mg/kg): −0.1 grams

Ac-C2GYFLFRPRN-CONH2 ({Ac-C(PEG 40 kDa)}-GYFLFRPRN-NH2) [NMU7, C2 = Cys(PEG)240 kDa]
EC50 ([3]; FLIPR): 79.6 nM | % Activity ([3]; maximum response at 1 μM compared to hNMU-25 response at same concentration): 91.4% | Body weight (BW) change (in grams) {relative to vehicle} Day 1 ([1]; 10 mg/kg): −1.7 grams | % Food intake (FI) reductions Day 1 ([1]; 10 mg/kg): 44% | EC50 ([4]; FLIPR): 36.1 nM | % Activity ([4]; maximum response at 1 μM compared to hNMU-25): 91.8%

Ac-C3FRVDEEFQSPFASQSRGYFLFRPRN-CONH2 (Ac-CFRVDEEFQSPFASQSRGYFLFRPRN-NH2; not fully specified (residue 1); printed as Ac-C3FRVDEEFQSPFASQSRGYFLFRPRN-CONH2) [NMU10, C3 = cysteine linked to cholesterol via the side-chain thiol]
Body weight (BW) change (in grams) {relative to vehicle} Day 1 ([1]; 10 mg/kg): −1.2 grams | % Food intake (FI) reductions Day 1 ([1]; 10 mg/kg): 24%

P1-FRVDEEFQSPFASQSRGYFLFRPRN-CONH2 ({branched PEG 40 kDa}-FRVDEEFQSPFASQSRGYFLFRPRN-NH2) [NMU1]
extension of serum half-life by PEGylation [1]: three days | Body weight (BW) change (in grams) {relative to vehicle} Day 1 ([1]; 10 mg/kg): −1.4 grams | % Food intake (FI) reductions Day 1 ([1]; 10 mg/kg): 57% | Body weight (BW) change (in grams) {relative to vehicle} Day 2 ([1]; 10 mg/kg): −1.7 grams | % Food intake (FI) reductions Day 2 ([1]; 10 mg/kg): 56% | Body weight (BW) change (in grams) {relative to vehicle} Day 3 ([1]; 10 mg/kg): −0.4 grams | % Food intake (FI) reductions Day 3 ([1]; 10 mg/kg): 22% | efficacy at reducing overnight food intake compared to hNMU-25 ([1]; acute subcutaneous administration): greater efficacy | body weight [1]: Significant reductions in body weight | duration of reductions in food intake [1]: three days post-dose | half-life in human plasma: greater than three days

— patent US20100075907A1, “NEUROMEDIN U RECEPTOR AGONISTS AND USES THEREOF” (priority 2006, published 2010)
